Laboratory results taken from patent US20230340127A1, “METHODS AND COMPOSITIONS FOR CANCER TREATMENT BY INHIBITION OF FBXO44” (Sanford Burnham Prebys Medical Discovery Institute, priority 2022, published 2023).

Tests used:
[1] = system: MDA-MB-231-luc-derived mammary tumors; assay: MDA-MB-231-luc orthotopic mammary tumors in immunodeficient mice treated with F5446; assay type: in vivo, mouse
Description: Animal studies: mice were maintained under pathogen free conditions in 14 hrs light/10 hrs dark cycle with ad libitum access to food and water. All animal handling and procedures used were performed in accordance with protocols approved by the Institutional Animal Care and Use Committee of SBP or UCSD. For intracardiac injections, 10^5 MDA-MB-231-luc cells transduced with lentivirus expressing non-targeting or FBXO44 shRNAs were resuspended in 100 μL DPBS and injected into the left ventricle of 6-week old female athymic nude mice (Envigo no. 069) anesthetized with isoflurane. Metastatic seeding was monitored weekly by intraperitoneal (i.p.) injection of 100 μL of 30 mg/mL D-Luciferin (Xenogen no.)CR-1001) 10 min prior to imaging using the IVIS Spectrum Xenogen Imaging System (Caliper Life Sciences). Images were analyzed using Living Image 3.0 software (Caliper Life Sciences). For ex vivo imaging of tissues, mice were injected with D-Luciferin prior to euthanasia, tissues harvested and placed in 24-well tissue culture plates containing 1 mL of 0.3 mg/mL D-Luciferin and imaged. Organs/tissues were fixed in 10% formalin and subjected to hematoxylin and eosin staining. For orthotopic injections of NSG mice, 3×10^6 MDA-MB-231-luc cells were suspended in 100 μL of PBS and injected into the mammary fat pads of 4- to 6-week-old female mice. For F5446 drug treatments, mice were randomly divided into 3 groups at day 12. The mice were administered vehicle (10% Cremophor EL in PBS) or F5446 at doses of 10 and 20 mg/kg body weight via i.p. injection on days 12, 14, 17, 19, 21 and 24 post-inoculation of cells. Tumor size was measured every 4-5 days (long diameter and short diameter) with a caliper and tumor volume calculated as 0.5×length×width×width. Mice were imaged weekly to monitor tumor growth and metastasis in vivo using an IVIS Spectrum Xenogen Imaging System (Caliper Life Sciences). All mice were euthanized at day 25 except 3 mice were taken out from each group for tumor IHC staining of γH2AX and cleaved Caspase 3 and quantitative RT-PCR analysis at day 21. […]

[2] = system: chromatin associated H3K9me3 modifications in MDA-MB-231 cells; assay: Immunofluorescence of chromatin associated H3K9me3 after F5446 treatment; assay type: cell-based, human; conditions: vehicle or F5446 for 48 hrs, IF (FIG. 10E)
Description: Immunofluorescence (IF): IF was performed to detect chromatin associated H3K9me3 in siRNA of FBXO44 or control. Briefly, cells were grown on Laminin-coated coverslips (neuVitro no. GG-12-laminin), washed twice with cold PBS, and then fixed with 4% paraformaldehyde for 20 min at 25° C. followed by permeabilization with 0.5% Triton X-100 in PBS for 5 min. Cells were fixed with chilled methanol for 5 min at −20° C. After 3×10 min washes in PBS, cells were incubated in blocking buffer (10 mM Tris-Cl [pH 7.5], 120 mM KCl, 20 mM NaCl, 0.5 mM EDTA, 0.1% Triton X-100, 10% milk, 2% BSA) overnight at 4° C. The relevant primary antibodies diluted in blocking buffer were then added. Specifically, 1:500 dilution for anti-H3K9me3 (Abcam no. ab8898). Cells were washed 3×10 min with KCMT buffer (10 mM Tris-Cl [pH 7.5], 120 mM KCl, 20 mM NaCl, 0.5 mM EDTA, 0.1% Triton X-100) and incubated with Alexa Fluor 488-labeled anti-rabbit (Thermo Fisher Scientific no. A-21441) or Alexa Fluor 594-labeled anti-mouse (Cell Signaling Technologies no. 8890) antibodies at 1:500 dilution for 1 hr at 25° C. After 3×10 min washes with KCMT buffer, cells were stained with DAPI (Thermo Fisher Scientific no. D1306), coverslips mounted with anti-fade mounting medium (Vector Laboratories no. H-1000), and slides examined by fluorescence microscopy (Nikon Inverted TE300) or confocal microscopy (Zeiss LSM 710 NLO). […]

[3] = system: HMECs and primary astrocytes; assay: Viability of normal cells after F5446 treatment; assay type: cell-based, human; conditions: F5446 for 48 hrs (FIG. 9G)
Description: To assess whether this epigenetic regulatory pathway could potentially be targeted for cancer treatment, SUV39H1 and its chemical inhibitor F5446 were used to perform experiments. IF, qRT-PCR, and growth curve experiments were performed as described in previous examples. Human mammary epithelial cells (HMECs) and primary astrocytes were also used in the experiments. HMECs (Lonza, #CC-2551) were cultured in MEGM BulletKit Medium (Lonza, #CC-3150). Primary astrocytes were cultured Astrocyte Medium (ScienCell, #1801) and cells were incubated at 37° C. in 5% CO2. All cells were incubated at 37° C. in 5% CO2. The cell cultures were authenticated by short tandem repeat (STR) analysis.
To establish the potential of a therapeutic index for FBXO44/SUV39H1, the role of FBXO44/SUV39H1 in RE silencing in normal cells was investigated using human mammary epithelial cells (HMECs) or primary astrocytes. HMECs and primary astrocytes were cultured and treated with F5446 as described in example 17. Growth curve, immunoblotting, IF, ChIP experiments were performed as described in previous examples.

`COC(=O)c1cc2c(n1S(=O)(=O)c1ccc(Cl)cc1)C(=O)C(=O)c1[nH]cc(C(=O)OCc3ccccc3)c1-2` [F5446] was tested, and the “γH2AX and cleaved Caspase 3 in tumors” value ([1]; IHC of F5446-treated tumors (FIG. 12K)) was “dose-dependent increase”, the mammary tumor growth ([1]; immunocompromised mice, 10 and 20 mg/kg i.p. (FIGS. 12H-12J)) was “inhibited mammary tumor growth in immunocompromised mice in a dose-dependent manner” and the “expression of REs, IFN α/β, and ISGs in tumors” value ([1]; qRT-PCR of F5446-treated tumors (FIG. 12L)) was “upregulated”. The “chromatin-associated H3K9me3” value [2] was “reduced” and the “HMEC and astrocyte viability” value [3] was “minimally affected”.
